The test system of data set [1] is F21T (human telomeric quadruplex-DNA). The data set is described as follows: FRET-melting assay with F21T. The data set is classed as binding. The following applies: for ΔT1/2 F21T: 0.2 μM F21T, 1 μM compound; for F21T stabilization maintained: sodium buffer. How it is done: (§1) Stabilization, and so interaction, of compounds with quadruplex-structure is monitored via FRET-melting assay, in a version that also enables the determination of the quadruplex-over duplex-DNA selectivity as well as the intra-quadruplex selectivity (17).
(§2) FRET assay is performed with oligonucleotides that mimic the human or plasmodium telomeric sequences, and equipped with FRET partners at each extremities: F21T (FAM-G3[T2AG3]3-Tamra,) FPf1T (FAM-G3[T3AG3]3-Tamra) and FPf8T (FAM-G3[T2CAG3]3-Tamra) with FAM: 6-carboxyfluorescein and Tamra: 6-carboxy-tetramethylrhodamine). Measurements were made with excitation at 492 nm and detection at 516 nm.
(§3) Fluorescence melting were carried out. The results are given on FIG. 3A-FIG. 3C. The experiments were carried out with 0.2 μM of F21T, FPf1T or FPf8T in a buffer containing 10 mM lithium cacodylate pH 7.2 and 100 mM NaCl or KCl (see example of F21T below, NaCl (left) and KCl (right)); the melting of the quadruplex-DNA was monitored alone and in the presence of 1 μM (5 equiv.) of compound 3.
Fluorescence melting are carried out with 0.2 μM of F21T in a buffer containing 10 mM lithium cacodylate pH 7.2 and 100 mM NaCl; the melting of the G-quadruplex was monitored alone and in the presence of 1 μM of compound 3 without or with excess (1, 3 and 10 μM) of duplex-DNA competitor ds26 (a 26 base-pair duplex-DNA comprised of the self complementary sequence [5′-[…]-3′]). The results are given on FIG. 4
Fluorescence melting experiments are carried out with 0.2 μM of F21T in a buffer containing 10 mM lithium cacodylate pH 7.2 and 100 mM NaCl; the melting of the G-quadruplex was monitored alone and in the presence of 1 μM of compound 3 without or with excess (1, 3 and 10 μM) of quadruplex-DNA competitors, both TG5T ([(5′-TG5T-3′)4], a tetramolecular quadruplex-DNA used in previous study (21) or c-myc ([5′-[…]-3′], a sequence present in the promoter region of the oncogene c-myc, highly suspected to fold into an intramolecular quadruplex-structure (22-25). The results are given on FIG. 5A-FIG. 5B.
FIG. 16 gives results obtained in FRET-melting, using the same sodium conditions as above defined in a) and b), with compounds 3 and 4. The melting of the Fluorescently labelled quadruplex F21T was monitored alone and in the presence of 1 μM of compound 3 or compound 4 without or with excess (1.3 and 10 μM) of duplex-DNA competitor ds26 (a 26 base-pair duplex DNA comprised the above mentioned self-complementary sequence [5′-[…]-3′]).

In data set [2] the test system is FPf1T (plasmodium telomeric quadruplex-DNA). The data set is described as follows: FRET-melting assay with FPf1T. The data set is classed as binding, Plasmodium falciparum. The following applies: 0.2 μM FPf1T, 1 μM compound. How it is done:
as §1, §2, §3

The test system of data set [3] is FPf8T (plasmodium telomeric quadruplex-DNA). The data set is described as follows: FRET-melting assay with FPf8T. Type of data set: binding, Plasmodium falciparum. Particulars: 0.2 μM FPf8T, 1 μM compound. How it is done: as §1, §2, §3
For another data set, the system named is 22AG quadruplex-DNA. As to the kind of experiment: Circular dichroism with 22AG. The data set is classed as binding, human. As to the method: Circular dichroism (CD) enables a deep study of the modification of the DNA structure upon the binding of a ligand; it thus reflects the affinity of the ligand to its target, and can also provide insight into its binding mode (Paramasivan et al, Methods, 2007, 43, 324).
The quadruplex-DNA used herein is 22AG (see above), annealed both in a 10 mM sodium cacodylate buffer pH 7.2, 100 mM NaCl (for 22AG Na) or KCl (for 22AG K). To a 3 μM solution of 22AG in both buffers is added an excess of compound 3 (30 μM, 10 equiv.).
The equilibrium between folded and unfolded forms of 22AG oligonucleotide is highly sensitive to the presence and the nature of the buffer it is used in. In low cationic buffer like 10 mM Tris.HCl, pH 7.2, 22AG is mostly unfolded (random coiled); it is thus possible to influence the folded <-> unfolded equilibrium by adding compound 3. Thus, to a 3 μM solution of random coiled 22AG in Tris.HCl buffer are added increasing amounts of compound 3 (from 0 to 7.5 equiv.); it results in a deep modification of the CD signal of 22AG, with a disappearance of the random coiled-typical 257 nm signal to the benefit of two novel maxima, one positive (near 290 nm) and one negative (near 265 nm), both being typical of the CD signature of ‘anti-parallel’ quadruplex-DNA structure (as 22AG Na, see above).

For data set [4], the system named is HT1080GFP-POT1 human fibrosarcoma and U20S human osteosarcoma cells. As to the kind of experiment: Inhibition of cell proliferation, viable cell count with trypan blue. The data set is classed as cell-based. The following applies: 72 hours, read-out: IC50 proliferation of cancer cells. How it is done:
The HT1080 human fibrosarcoma cell line stably transfected with pEGFP-POT1 vector (HT1080GFP-POT1) has been previously described (32) and U20S human osteosarcoma was from American Type Culture Collection (Rockville, USA). Cells were grown in Dublecco's modified Eagles's medium (Invitrogen) supplemented with 10% v/v fetal bovine serum and with 400 μg/ml geneticin for HT1080GFP-POT1. Cells were plated in 6-wells culture plates on day 0 at 4.5×10^4 cells/well in the presence of different concentrations of compound 3 (10, 3, 1, 0.3 and 0.1 μM), each concentration in duplicate, and cultured for further 72 hours. At day 3, cells were washed with 1×PBS and trypsinized. For each treated cell sample, the number of viable cells was determined in the presence of trypan blue. Results are given on FIG. 15A and FIG. 15B. They correspond to the relative cell number in percent as compared to control untreated cells defined as 100%.

These results are taken from patent publication US20110201648A1, “POLY-HETEROARYL DERIVATIVES FOR THE TREATMENT OF CANCER” (INSTITUT CURIE, priority 2008, published 2011).

The structures appear in SMILES notation. A value given as a limit tells only on which side of the number the result lay.

The molecule `c1cc(-c2cnc(-c3cccc(-c4cnco4)n3)o2)nc(-c2cnc(-c3cccc(-c4cnco4)n3)o2)c1` [compound 3, 2,6-bis{2-[6-(oxazol-5-yl)pyridin-2-yl]oxazol-5-yl}pyridine] registered a melting point greater than 250 °C. Further, in data set [1] (K+ (100 mM KCl)), the “ΔT1/2 F21T” value was 1.3 °C. Also, the “ΔT1/2 F21T” value in data set [1] (Na+ (100 mM NaCl)) was 14.6 °C. The same molecule yielded an F21T stabilization maintained in data set [1] (1 μM of TG5T competitor) of 61%. For the same molecule, the F21T stabilization maintained in data set [1] (1 μM of c-myc competitor) is recorded as 42%. In data set [1] (3 μM of TG5T competitor), this molecule came in with an F21T stabilization maintained of 37%. The F21T stabilization maintained in data set [1] (3 μM of c-myc competitor) is recorded as 15%. The molecule also gave an F21T stabilization maintained in data set [1] (10 μM of TG5T competitor) of 17%. Moreover, in data set [1] (10 μM of c-myc competitor), the F21T stabilization maintained came out at 1%. Further, in data set [1] (in presence of 1, 3 or 10 μM of ds26 duplex competitor), the F21T stabilization maintained is greater than 91%. In addition, the “ΔT1/2 FPf1T” value in data set [2] (K+ (100 mM KCl)) came to 2.1 °C. In data set [2] (Na+ (100 mM NaCl)), the “ΔT1/2 FPf1T” value is 20.4 °C. Further, in data set [3] (K+ (100 mM KCl)), the “ΔT1/2 FPf8T” value is 1.5 °C. Moreover, the “ΔT1/2 FPf8T” value in data set [3] (Na+ (100 mM NaCl)) came out at 16.3 °C. In the data set on 22AG quadruplex-DNA (3 μM 22AG, 30 μM compound (10 equiv.), 100 mM KCl, 263 nm), the “CD signal of 22AG K” value is listed as “reorganises completely the structure”. The “CD signal of 22AG Na” value in the data set with 22AG quadruplex-DNA (3 μM 22AG, 30 μM compound (10 equiv.), 100 mM NaCl, 263 nm) is “modification of the amplitude of the CD signal”. Further, the “quadruplex-structure induction (folded/unfolded equilibrium of 22AG)” value in the data set with 22AG quadruplex-DNA (3 μM random coiled 22AG in 10 mM Tris.HCl pH 7.2, 0 to 7.5 equiv. compound) is “able to shift the equilibrium between the unfolded and the folded form of 22AG toward the folded one”. In addition, the IC50 in data set [4] lay within 100 to 1000 nM.
